The target of one test is T1, Adenosine receptor A1 (Rattus norvegicus, UniProt P25099).
T1 sequence (P25099 whole entry): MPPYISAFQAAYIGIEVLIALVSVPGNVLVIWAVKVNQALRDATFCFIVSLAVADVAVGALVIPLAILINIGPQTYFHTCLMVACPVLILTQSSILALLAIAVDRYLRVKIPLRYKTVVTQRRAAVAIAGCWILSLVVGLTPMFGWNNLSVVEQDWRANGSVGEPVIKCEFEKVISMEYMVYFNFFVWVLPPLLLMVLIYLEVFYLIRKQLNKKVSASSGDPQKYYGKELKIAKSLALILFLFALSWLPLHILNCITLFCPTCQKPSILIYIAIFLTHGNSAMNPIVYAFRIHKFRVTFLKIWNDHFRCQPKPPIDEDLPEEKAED
The experiment in a line: Binding affinity to A1 adenosine receptor from rat cortical membrane in presence of [3H]R-(phenylisopropyl)-adenosine.

For a further test, the target named is Adenosine A2 receptor (Rattus norvegicus, UniProt P29276+P30543). In words: Binding affinity to A2 adenosine receptor from rat striatal membrane in presence of [3H]5'-(N-ethylcarboximido)-adenosine.
The target of test [1] is Adenosine A2 receptor (Rattus norvegicus) (UniProt P29276+P30543). The experiment in a line: Percent inhibition of [3H]5'-(N-ethylcarboximido)-adenosine (NECA) binding to A2 adenosine receptor. The test is classed as protein assay. Also on record: concentration or dose not given beside the values. To be noted: concentration not given here.
The target of test [2] is T2, Adenosine receptor A1 (Rattus norvegicus) (UniProt P25099).
T2 sequence (whole entry): T1 sequence (P25099 whole entry)
In words: Percent inhibition of [3H]R-(phenylisopropyl)-adenosine (PIA) binding to A1 adenosine receptor. To be noted: concentration not given here.

For orientation: Ki means a dissociation constant, usually derived from enzyme kinetics or from competition with a known ligand. With `Cn1c(=O)c2[nH]ccc2n(C)c1=O`, the Ki on Adenosine receptor A1 came out at 5.4 µM; on Adenosine A2 receptor, 12 µM.

Turning to `Cn1c(=O)[nH]c2cc(-c3ccccc3)[nH]c2c1=O`, the Ki at Adenosine receptor A1 was determined as 0.097 µM; on Adenosine A2 receptor, 2 µM.

Consider `Cn1c(=O)c2cc(-c3ccccc3)n(C)c2n(C)c1=O`, for which the Ki on Adenosine receptor A1 is 11 µM; at Adenosine A2 receptor it was 40 µM.

Consider `CCCn1c(=O)[nH]c2cc(-c3ccccc3)[nH]c2c1=O`, for which the Ki on Adenosine receptor A1 worked out at 0.039 µM; at Adenosine A2 receptor, 1.2 µM.

In the case of `CCCn1c(=O)c2[nH]ccc2n(CCC)c1=O`, the inhibition constant Ki on Adenosine receptor A1 was 0.44 µM; on Adenosine A2 receptor it was 5.1 µM.

In the case of `CCCn1c(=O)c2c(ccn2C)n(CCC)c1=O`, the Ki on Adenosine receptor A1 worked out at 2.3 µM; on Adenosine A2 receptor, 13 µM.

As a reminder, the inhibition is the relative decrease from the control value, in per cent. Turning to `Cn1c(=O)c2c(cc(-c3cccc4ccccc34)n2O)n(C)c1=O`, the Ki on Adenosine receptor A1 is > 30 µM; on Adenosine A2 receptor, > 100 µM. Further, the inhibition was determined as 38% in test [1] and 47% in test [2].

As for `Cn1c(=O)c2[nH]c(-c3cccc4ccccc34)cc2n(C)c1=O`, the Ki on Adenosine receptor A1 and on Adenosine A2 receptor was > 30 µM in each case. Moreover, the inhibition in test [1] amounted to 1.2%; in test [2], 33%.

`Cn1c(=O)c2c(cc(-c3cccc4ccccc34)n2C)n(C)c1=O`: the Ki is 9.2 µM on Adenosine receptor A1 and > 30 µM on Adenosine A2 receptor. Moreover, the inhibition in test [1] is 22%.

With `Cn1c(=O)c2c(cc(/C=C/c3ccccc3)n2C)n(C)c1=O`, the Ki at Adenosine receptor A1 came to 2.6 µM; on Adenosine A2 receptor it was 0.26 µM.

For `Cn1c(=O)c2c(cc(-c3ccccc3)n2C)n(C)c1=O`, the Ki on Adenosine A2 receptor turned out to be 14 µM.

Consider `Cn1c(=O)[nH]c2cc[nH]c2c1=O`, for which the Ki was 2.9 µM on Adenosine receptor A1 and 34 µM at Adenosine A2 receptor.

Take `Cn1c(=O)c2[nH]c(-c3ccc4ccccc4c3)cc2n(C)c1=O`: the Ki on Adenosine receptor A1 was 0.026 µM; on Adenosine A2 receptor, > 0.5 µM. In test [1], this compound yielded an inhibition of 34%.

`Cn1c(=O)c2c(cc(-c3ccc4ccccc4c3)n2C)n(C)c1=O`: the Ki on Adenosine receptor A1 amounted to 0.27 µM; on Adenosine A2 receptor, 1.1 µM.

For the compound `Cn1c(=O)c2cc[nH]c2n(C)c1=O`, the Ki at Adenosine receptor A1 is 43 µM; at Adenosine A2 receptor, > 250 µM. In test [1], this compound had an inhibition of 39%.

As for `Cn1c(=O)c2[nH]c(/C=C/c3ccccc3)cc2n(C)c1=O`, the Ki at Adenosine receptor A1 was 0.165 µM; at Adenosine A2 receptor, 0.64 µM.

In the case of `Cn1c(=O)c2cc(-c3ccccc3)[nH]c2n(C)c1=O`, the Ki stood at 3.1 µM at Adenosine receptor A1 and 12 µM at Adenosine A2 receptor.

With `Cn1c(=O)c2c(cc(/C=C/c3ccccc3)n2O)n(C)c1=O`, the Ki at Adenosine receptor A1 was 0.56 µM; at Adenosine A2 receptor, 1.8 µM.

In the case of `Cn1c(=O)c2c(ccn2C)n(C)c1=O`, the results for the Ki on Adenosine receptor A1 and at Adenosine A2 receptor were 32 µM and 72 µM, respectively.

Turning to `Cn1c(=O)c2c(nc(-c3ccccc3)n2C)n(C)c1=O`, the Ki at Adenosine A2 receptor was 25 µM.

Consider `CCCn1c(=O)c2[nH]c(-c3ccccc3)cc2n(CCC)c1=O`, for which the Ki at Adenosine receptor A1 was 0.013 µM; at Adenosine A2 receptor it was 0.45 µM.

`Cn1c(=O)c2[nH]c(-c3ccccc3)cc2n(C)c1=O`: the figures for the Ki on Adenosine receptor A1 and at Adenosine A2 receptor were 0.047 µM and 0.51 µM, respectively.

Turning to `CCCn1c(=O)c2c(nc(-c3ccccc3)n2C)n(CCC)c1=O`, the Ki on Adenosine A2 receptor was found to be 15 µM.

Consider `CCCn1c(=O)[nH]c2cc[nH]c2c1=O`, for which the Ki on Adenosine receptor A1 turned out to be 1.7 µM; on Adenosine A2 receptor, 18 µM.

As for `Cn1c(=O)c2nc(-c3ccccc3)[nH]c2n(C)c1=O` [8-PHENYL THEOPHYLLINE], on Adenosine A2 receptor, the Ki was found to be 0.83 µM.

For the compound `Cn1c(=O)c2c(cc(-c3ccc4ccccc4c3)n2O)n(C)c1=O`, the Ki on Adenosine receptor A1 came to 0.22 µM; on Adenosine A2 receptor, 1 µM.

Consider `CCCn1c(=O)c2[nH]c(N(C)C)cc2n(CCC)c1=O`, for which the Ki at Adenosine receptor A1 came out at 0.13 µM; at Adenosine A2 receptor it was 16 µM.

In the case of `CCCn1c(=O)c2c(cc(-c3ccccc3)n2C)n(CCC)c1=O`, the Ki at Adenosine A2 receptor is 5.2 µM.

As for `CCCn1c(=O)c2c(ncn2C)n(CCC)c1=O`, at Adenosine A2 receptor, the Ki came to 10 µM.
